Paper PMC11922053 (Science Advances, 2025)
Where a SMILES comes first, the peptide text is derived from it. Bridges are numbered along the chain shown (N, C = ends). [ ]: non-standard residue; d: D form. The star is where a group is joined. Biotin = O=C1N[C@H]2[C@H](CS[C@H]2CCCCC(=O)*)N1; 2Nal = N[C@@H](Cc1ccc2ccccc2c1)C(=O)O; Gly(cPent) = N[C@H](C(=O)O)C1CCCC1; Hyp = O=C(O)[C@@H]1C[C@@H](O)CN1; Pen = CC(C)(S)[C@H](N)C(=O)O; Api = NC1(C(=O)O)CCNCC1; Ahx = NCCCCCC(=O)O

System: anti-hemagglutinin antibody clone 12ca5
Assay: Biolayer interferometry
Assay type: binding, mouse
Conditions: off-target control

CC1(C)SSC[C@H](NC(=O)[C@H](CO)NC(=O)[C@@H](NC(=O)[C@H](CO)NC(=O)C2(NC(=O)[C@H](Cc3ccc4ccccc4c3)NC(=O)[C@H](CO)NC(=O)CCCCCNC(=O)[C@@H](N)CCCCNC(=O)CCCC[C@@H]3SC[C@@H]4NC(=O)N[C@@H]43)CCNCC2)C2CCCC2)C(=O)N2C[C@H](O)C[C@H]2C(=O)N[C@@H](CO)C(=O)N[C@@H](Cc2ccc(O)cc2)C(=O)N[C@@H](CO)C(=O)N[C@@H](CO)C(=O)N2C[C@H](O)C[C@H]2C(=O)N[C@@H]1C(=O)N[C@@H](CO)C(N)=O [NCBP-4 Ser Sub] (H-K(Biotin)[Ahx]S[2Nal][Api]S[Gly(cPent)]SC[Hyp]SYSS[Hyp][Pen]S-NH2; disulfide 9-16; N-terminus assumed)
nonspecific binding to 12ca5 by BLI (in words): no affinity
